# Values of other authors in patent US20060189586A1, “Pharmaceutical compositions comprising active vitamin D compounds” (priority 2003, published 2006).
# Conditions: in vivo
row,SMILES,Hypercalcemic effect compared to calcitriol
1,C=C1/C(=C\C=C2/CCC[C@]3(C)C([C@H](C)CC#CC(C)(C)O)=CC[C@@H]23)C[C@@H](O)C[C@@H]1O [Ro23-7553],reduced hypercalcemic effect
2,C=C1/C(=C/C=C2\CCC[C@]3(C)C([C@H](C)CC#CC(O)(C(F)(F)F)C(F)(F)F)=CC[C@@H]23)C[C@@H](O)C[C@@H]1O [Ro24-5531],reduced hypercalcemic effect
